Test results: BindingDB's records for doi:10.1021/jm00022a011 (Upjohn Laboratories, 1995)

system: HIV-I infected H9 cells (antiviral activity); assay: Antiviral activity against HIV-I infected H9 cells

Row | IC50 | SMILES
1 | 17.1 µM | O=C(C=Cc1ccccc1)Nc1cccc(C(c2c(O)c3c(oc2=O)CCCCCC3)C2CC2)c1 (configuration not stated) [(E)-N-{3-[Cyclopropyl-(4-hydroxy-2-oxo-5,6,7,8,9,10-hexahydro-2H-cycloocta[b]pyran-3-yl)-methyl]-phenyl}-3-phenyl-acrylamide]
2 | 45.3 µM | CC(C)(C)OC(=O)N[C@@H](Cc1cnc[nH]1)C(=O)Nc1cccc(C(c2c(O)c3c(oc2=O)CCCCCC3)C2CC2)c1 (stereo partly drawn) [[(S)-1-{3-[Cyclopropyl-(4-hydroxy-2-oxo-5,6,7,8,9,10-hexahydro-2H-cycloocta[b]pyran-3-yl)-methyl]-phenylcarbamoyl}-2-(1H-imidazol-4-yl)-ethyl]-carbamic acid tert-butyl ester]
3 | 21.9 µM | O=C(Nc1cccc(C(c2c(O)c3c(oc2=O)CCCCCC3)C2CC2)c1)c1ccc(F)cc1 (configuration not stated) [N-{3-[Cyclopropyl-(4-hydroxy-2-oxo-5,6,7,8,9,10-hexahydro-2H-cycloocta[b]pyran-3-yl)-methyl]-phenyl}-4-fluoro-benzamide]
4 | 17.3 µM | O=C(Cc1ccccc1)Nc1cccc(C(c2c(O)c3c(oc2=O)CCCCCC3)C2CC2)c1 (configuration not stated) [N-{3-[Cyclopropyl-(4-hydroxy-2-oxo-5,6,7,8,9,10-hexahydro-2H-cycloocta[b]pyran-3-yl)-methyl]-phenyl}-2-phenyl-acetamide]
5 | 23.5 µM | O=C(Nc1cccc(C(c2c(O)c3c(oc2=O)CCCCCC3)C2CC2)c1)c1ccccc1 (configuration not stated) [N-{3-[Cyclopropyl-(4-hydroxy-2-oxo-5,6,7,8,9,10-hexahydro-2H-cycloocta[b]pyran-3-yl)-methyl]-phenyl}-benzamide]
6 | 5.3 µM | CCCC1CCCCCCc2c1oc(=O)c(C(c1ccccc1)C1CC1)c2O (configuration not stated) [3-(Cyclopropyl-phenyl-methyl)-4-hydroxy-11-propyl-6,7,8,9,10,11-hexahydro-5H-cyclonona[b]pyran-2-one]
7 | > 60 µM | CCNC(=O)Nc1cccc(C(c2c(O)c3c(oc2=O)CCCCCC3)C2CC2)c1 (configuration not stated) [1-{3-[Cyclopropyl-(4-hydroxy-2-oxo-5,6,7,8,9,10-hexahydro-2H-cycloocta[b]pyran-3-yl)-methyl]-phenyl}-3-ethyl-urea]
8 | 33.4 µM | CC(C)(C)OC(=O)NCCC(=O)Nc1cccc(C(c2c(O)c3c(oc2=O)CCCCCC3)C2CC2)c1 (configuration not stated) [(2-{3-[Cyclopropyl-(4-hydroxy-2-oxo-5,6,7,8,9,10-hexahydro-2H-cycloocta[b]pyran-3-yl)-methyl]-phenylcarbamoyl}-ethyl)-carbamic acid tert-butyl ester]
9 | 35.1 µM | CCCC(=O)Nc1cccc(C(c2c(O)c3c(oc2=O)CCCCCC3)C2CC2)c1 (configuration not stated) [N-{3-[Cyclopropyl-(4-hydroxy-2-oxo-5,6,7,8,9,10-hexahydro-2H-cycloocta[b]pyran-3-yl)-methyl]-phenyl}-butyramide]
10 | 21.7 µM | O=C(Nc1ccccc1)Nc1cccc(C(c2c(O)c3c(oc2=O)CCCCCC3)C2CC2)c1 (configuration not stated) [1-{3-[Cyclopropyl-(4-hydroxy-2-oxo-5,6,7,8,9,10-hexahydro-2H-cycloocta[b]pyran-3-yl)-methyl]-phenyl}-3-phenyl-urea]
11 | 31.8 µM | C[C@H](NC(=O)OC(C)(C)C)C(=O)Nc1cccc(C(c2c(O)c3c(oc2=O)CCCCCC3)C2CC2)c1 (stereo partly drawn) [((S)-1-{3-[Cyclopropyl-(4-hydroxy-2-oxo-5,6,7,8,9,10-hexahydro-2H-cycloocta[b]pyran-3-yl)-methyl]-phenylcarbamoyl}-ethyl)-carbamic acid tert-butyl ester]
12 | 49.5 µM | CC(C)(C)OC(=O)NCCCC(=O)Nc1cccc(C(c2c(O)c3c(oc2=O)CCCCCC3)C2CC2)c1 (configuration not stated) [(3-{3-[Cyclopropyl-(4-hydroxy-2-oxo-5,6,7,8,9,10-hexahydro-2H-cycloocta[b]pyran-3-yl)-methyl]-phenylcarbamoyl}-propyl)-carbamic acid tert-butyl ester]
13 | 29.2 µM | CC(C)(C)OC(=O)N1CCC[C@H]1C(=O)Nc1cccc(C(c2c(O)c3c(oc2=O)CCCCCC3)C2CC2)c1 (stereo partly drawn) [(S)-2-{3-[Cyclopropyl-(4-hydroxy-2-oxo-5,6,7,8,9,10-hexahydro-2H-cycloocta[b]pyran-3-yl)-methyl]-phenylcarbamoyl}-pyrrolidine-1-carboxylic acid tert-butyl ester]
14 | > 60 µM | C[C@@H](NC(=O)OC(C)(C)C)C(=O)Nc1cccc(C(c2c(O)c3c(oc2=O)CCCCCC3)C2CC2)c1 (stereo partly drawn) [((R)-1-{3-[Cyclopropyl-(4-hydroxy-2-oxo-5,6,7,8,9,10-hexahydro-2H-cycloocta[b]pyran-3-yl)-methyl]-phenylcarbamoyl}-ethyl)-carbamic acid tert-butyl ester]
15 | 29.8 µM | CC(C)(C)OC(=O)NCC(=O)Nc1cccc(C(c2c(O)c3c(oc2=O)CCCCCC3)C2CC2)c1 (configuration not stated) [({3-[Cyclopropyl-(4-hydroxy-2-oxo-5,6,7,8,9,10-hexahydro-2H-cycloocta[b]pyran-3-yl)-methyl]-phenylcarbamoyl}-methyl)-carbamic acid tert-butyl ester]

molecular target: Human immunodeficiency virus type 1 protease (Human immunodeficiency virus 1, UniProt Q72874); assay: Inhibitory activity against HIV-I protease.

Row | Ki | SMILES
16 | 0.024 µM | O=c1oc2c(c(O)c1C(c1ccccc1)C1CC1)CCCCCC2CC1CC1 (configuration not stated) [10-Cyclopropylmethyl-3-(cyclopropyl-phenyl-methyl)-4-hydroxy-5,6,7,8,9,10-hexahydro-cycloocta[b]pyran-2-one]
17 | 0.024 µM | O=c1oc2c(c(O)c1C(c1ccccc1)C1CC1)CCCCCCC2CC1CC1 (configuration not stated) [11-Cyclopropylmethyl-3-(cyclopropyl-phenyl-methyl)-4-hydroxy-6,7,8,9,10,11-hexahydro-5H-cyclonona[b]pyran-2-one]
